Test results reported in paper PMC13305993, “Bioassay-Guided Phytochemical Investigation of Vietnamese Vitex rotundifolia Leaves and the Liverwort Ptychanthus striatus as Sources of SARS-CoV-2 Main Protease Inhibitors” (Molecules, 2026).

Biological target: SARS-CoV-2 Mpro (Severe acute respiratory syndrome coronavirus 2, UniProt P0DTD1)
Assay: biochemical
Settings: isolated compounds at 100 µg/mL; triplicate, mean (Figure 3)

## C=C(C)[C@@H]1CC[C@]2(C(=O)O)CC[C@]3(C)[C@H](CC[C@@H]4[C@@]5(C)CC[C@H](O)C(C)(C)[C@@H]5CC[C@]43C)[C@@H]12 [V10, betulinic acid]
  inhibition at 100 µg/mL: 0%
